Experiment [1] has as its system HT29 Human Colon Carcinoma cell line. The experiment in a line: In vitro growth inhibition (MTT), HT29 colon carcinoma. It counts as cell-based. As to conditions: 6 days. From the text: P388 murine leukemic cell line was obtained from the DCT Tumor Repository (National Cancer Institute, Frederick Cancer Research and Development, Frederick Md. 21702). HT29 Human Colon Carcinoma cell line was obtained from the American Type Culture Collection (12301 Parklawn Drive, Rockville, Md. 20852). B16 Melanoma cell line was obtained from DuPont Merck Pharmaceutical Company (Glenolden, Pa. 19036). MCF-7 Human Breast Carcinoma cell line was a gift from Dr. K. Osborne (Department of Medicine, The University of Texas Health Science Center at San Antonio, San Antonio, Tex. 78284). All cell lines were incubated at 37° C. in a humidified atmosphere of 5% CO2 -95% air. Murine B16 melanoma cell line was grown in RPMI 1640 medium supplemented with 10% heat-inactivated fetal bovine serum, 2 mM L-glutamine, 50 units/ml penicillin, 50 μg/ml streptomycin, 25 μg/ml gentamycin, 0.75% sodium bicarbonate, 10 mM HEPES buffer (pH 7.4), and 0.06 mg/ml AntiPPLO. Murine P388 leukemic and the human HT-29 colon adenocarcinoma cell lines were maintained in RPMI 1640 medium supplemented with 10% heat-inactivated fetal bovine serum. MCF-7M human breast adenocarcinoma was maintained in IMEM medium supplemented with 5% non heat-inactivated fetal bovine serum and 1 nM insulin.
Exponentially growing cells (1-2×10^3 cells, unless specified otherwise) in 0.1 ml medium were seeded on day 0 in a 96-well microtiter plate. On day 1, 0.1 ml aliquots of medium containing graded concentrations of test compounds were added in duplicate to the cell plates. After incubation at 37° C. in a humidified incubator for 3 days (P388, B16) or 6 days (HT-29, MCF-7M), the plates were centrifuged briefly and 100 μl of the growth medium was removed. Cell cultures were incubated with 50 μl of 3-(4,5-dimethylthiazol-2-yl)-2,5-diphenyl-tetrazolium bromide [MTT, 1 mg/ml in Dulbecco's phosphate buffered saline (PBS)] for 4 hr at 37° C. The resulting purple formazan precipitate was solubilized with 200 μl of 0.04N HCl in isopropyl alcohol. Absorbance was monitored in a BioRad Model 3550 Microplate Reader at a test wavelength of 570 nm and a reference wavelength of 630 nm. The absorbance was transferred to a PC 486 computer. The IC50 values were determined by a computer program (EZ-ED50) that fit all of the data to the following four-parameterlogistic equation:
Y=((Am -Ao)/(1+(X/IC50)^n))+Ao
where Am is the absorbance of control cells, Ao is the absorbance of cells in the presence of highest agent concentration, Y is the observed absorbance, X is the agent concentration, IC50 is the concentration of agent that inhibits the cell growth by 50% of control cells (based on the absorbance) and n is the slope of the curve.

In a further experiment the target is Lambda DNA. Kind of experiment: Ethidium bromide displacement, lambda DNA. It counts as binding. As to conditions: 1 μM DNA, 1.26 μM ethidium bromide, pH 7.0, read-out: FI50, Lambda DNA. How it is done: A 10× Binding solution was prepared by combining 0.93 ml of an aqueous NaCl solution (5M), 2.0 ml of an aqueous Tris HCl (500 mM) solution, 0.1 ml of an EDTA solution (500 mM) and 46.97 ml of water. The resultant solution was 93 mM in NaCl, 20 mM in Tris HCl, and 1 mM in EDTA. Stock DNA solution were prepared as follows: Poly (dG·dC)-(dG·dC) (ε254=8.4/mM; 27-7910-02), poly(dA·dT)-(dA·dT) (ε262=6.6/mM; 27-7870-02), and lambda DNA (ε260-7.0/mM; 27-4111-01) were purchased from Pharmacia. Solutions were prepared by resuspending either poly (dG·dC)-(dG·dC) or poly(dA·dT)-(dA·dT)in 1 ml of 10× DNA Binding Solution. Lambda DNA is already in solution as purchased.
Poly (dG·dC)-(dG·dC), poly(dA·dt)-(dA·dt) and lambda DNA concentrations were determined as follows: 980 μl of 10× DNA Binding Solution was pipetted into a 1 ml cuvette. A blank was run on the UV spectrophotometer. 20 μl of the DNA stock of unknown concentration was then added into the cuvette. The sample was then scanned between 210 nm to 500 nm and the absorbance recorded at 254 nm for poly(dG·dC)-(dG·dC), at 262 nm for poly(dA·dT)-(dA·dT) and at 260 nm for lambda DNA. The solution was transferred to a clean tube. This procedure was followed for three different solutions with the absorbance taken as the average of the three. The concentration of poly(dG·dC)-(dG·dC) stock was calculated to be A254 /8.4×1000 (in μM). The concentration of poly(dA·dT)-(dA·dT) stock was calculated to be A262 /6.6×1000 (in μM). The concentration of lambda DNA stock was calculated to be A260 /7.0×1000 (in μM).
The binding of the bis-naphthalimides to DNA and to synthetic polynucleotide duplexes was determined by an ethidium bromide displacement assay that measures the reduction of fluorescence when ethidium bromide is displaced from DNA (Baguley, 1981). The fluorescence intensity of a 3 ml solution containing 9.3 mM NaCl, 2 mM Tris-HCl (pH 7.0), 100 μM EDTA, 1 μM DNA (in nucleotides) and 1.26 μM ethidium bromide in a quartz cuvette was measured at the excitation (546 nm) and emission (600 nm) wavelengths on a Shimadzu RF5000U spectrofluorometer. Graded concentrations of agent were then added and the fluorescence intensity was measured. The concentration of compound required to reduce the fluorescence intensity by 50% of that of control (FI50) was determined. Therefore, the lower the FI50 the stronger the binding affinity a particular compound has for DNA.
The ability of bis-naphthalimides of the present invention and the known anti-cancer agents compound 22 and DMP840, (R,R)-2,2'[1,2-ethanediylbis[imino(1-methyl-2,1-ethanediyl)]]-bis[5-nitro- 1H benz[de]isoquinoline-1,3-(2H)dione]dimethanesulfonate, to bind to DNA and to synthetic oligonucleotide duplexes was measured using an ethidium bromide displacement assay. Ethidium bromide, a known DNA intercalator, has no fluorescence in the absence of DNA; however, fluorescence intensity increases when ethidium bromide binds to DNA. The ethidium bromide displacement assay measures the decrease in fluorescence intensity caused by DNA-bound ethidium bromide with DNA interacting agents.

Results on one substance are retold here after patent US5561042A, “Diamine platinum naphthalimide complexes as antitumor agents” (Cancer Therapy and Research Center, priority 1995, dated 1996).

pIC50: −log10 of the molar value.

Regarding “8-(3'-nitro-1',8'-naphthalimide)-3,6-diazaoctylamine dichloroplatinum(II) [Compound 21]”, the pIC50 is 6.89 in experiment [1] and 6.63 on Lambda DNA.
